# Measured values published in US6608086B2, “Dihydropyridines and new uses thereof” (Synaptic Pharmaceutical Corporation, priority 1993, dated 2003).
# pKi: −log10 of the molar value. Read-outs that look alike come from different tables or passages of the source.
# How the values were obtained:
# L-type calcium channel = biological target: T1, L-type calcium channel (Rattus norvegicus, UniProt P22002); assay: Competition binding of [3H]nitrendipine to membrane fragments of rat cardiac muscle; conditions: for Ki: [3H]nitrendipine
# T1 construct: membrane fragments of rat cardiac muscle; from tissue; host or cells: rat cardiac muscle membranes
# T1 sequence (P22002 whole entry, other chains not shown, the tested form may be a part): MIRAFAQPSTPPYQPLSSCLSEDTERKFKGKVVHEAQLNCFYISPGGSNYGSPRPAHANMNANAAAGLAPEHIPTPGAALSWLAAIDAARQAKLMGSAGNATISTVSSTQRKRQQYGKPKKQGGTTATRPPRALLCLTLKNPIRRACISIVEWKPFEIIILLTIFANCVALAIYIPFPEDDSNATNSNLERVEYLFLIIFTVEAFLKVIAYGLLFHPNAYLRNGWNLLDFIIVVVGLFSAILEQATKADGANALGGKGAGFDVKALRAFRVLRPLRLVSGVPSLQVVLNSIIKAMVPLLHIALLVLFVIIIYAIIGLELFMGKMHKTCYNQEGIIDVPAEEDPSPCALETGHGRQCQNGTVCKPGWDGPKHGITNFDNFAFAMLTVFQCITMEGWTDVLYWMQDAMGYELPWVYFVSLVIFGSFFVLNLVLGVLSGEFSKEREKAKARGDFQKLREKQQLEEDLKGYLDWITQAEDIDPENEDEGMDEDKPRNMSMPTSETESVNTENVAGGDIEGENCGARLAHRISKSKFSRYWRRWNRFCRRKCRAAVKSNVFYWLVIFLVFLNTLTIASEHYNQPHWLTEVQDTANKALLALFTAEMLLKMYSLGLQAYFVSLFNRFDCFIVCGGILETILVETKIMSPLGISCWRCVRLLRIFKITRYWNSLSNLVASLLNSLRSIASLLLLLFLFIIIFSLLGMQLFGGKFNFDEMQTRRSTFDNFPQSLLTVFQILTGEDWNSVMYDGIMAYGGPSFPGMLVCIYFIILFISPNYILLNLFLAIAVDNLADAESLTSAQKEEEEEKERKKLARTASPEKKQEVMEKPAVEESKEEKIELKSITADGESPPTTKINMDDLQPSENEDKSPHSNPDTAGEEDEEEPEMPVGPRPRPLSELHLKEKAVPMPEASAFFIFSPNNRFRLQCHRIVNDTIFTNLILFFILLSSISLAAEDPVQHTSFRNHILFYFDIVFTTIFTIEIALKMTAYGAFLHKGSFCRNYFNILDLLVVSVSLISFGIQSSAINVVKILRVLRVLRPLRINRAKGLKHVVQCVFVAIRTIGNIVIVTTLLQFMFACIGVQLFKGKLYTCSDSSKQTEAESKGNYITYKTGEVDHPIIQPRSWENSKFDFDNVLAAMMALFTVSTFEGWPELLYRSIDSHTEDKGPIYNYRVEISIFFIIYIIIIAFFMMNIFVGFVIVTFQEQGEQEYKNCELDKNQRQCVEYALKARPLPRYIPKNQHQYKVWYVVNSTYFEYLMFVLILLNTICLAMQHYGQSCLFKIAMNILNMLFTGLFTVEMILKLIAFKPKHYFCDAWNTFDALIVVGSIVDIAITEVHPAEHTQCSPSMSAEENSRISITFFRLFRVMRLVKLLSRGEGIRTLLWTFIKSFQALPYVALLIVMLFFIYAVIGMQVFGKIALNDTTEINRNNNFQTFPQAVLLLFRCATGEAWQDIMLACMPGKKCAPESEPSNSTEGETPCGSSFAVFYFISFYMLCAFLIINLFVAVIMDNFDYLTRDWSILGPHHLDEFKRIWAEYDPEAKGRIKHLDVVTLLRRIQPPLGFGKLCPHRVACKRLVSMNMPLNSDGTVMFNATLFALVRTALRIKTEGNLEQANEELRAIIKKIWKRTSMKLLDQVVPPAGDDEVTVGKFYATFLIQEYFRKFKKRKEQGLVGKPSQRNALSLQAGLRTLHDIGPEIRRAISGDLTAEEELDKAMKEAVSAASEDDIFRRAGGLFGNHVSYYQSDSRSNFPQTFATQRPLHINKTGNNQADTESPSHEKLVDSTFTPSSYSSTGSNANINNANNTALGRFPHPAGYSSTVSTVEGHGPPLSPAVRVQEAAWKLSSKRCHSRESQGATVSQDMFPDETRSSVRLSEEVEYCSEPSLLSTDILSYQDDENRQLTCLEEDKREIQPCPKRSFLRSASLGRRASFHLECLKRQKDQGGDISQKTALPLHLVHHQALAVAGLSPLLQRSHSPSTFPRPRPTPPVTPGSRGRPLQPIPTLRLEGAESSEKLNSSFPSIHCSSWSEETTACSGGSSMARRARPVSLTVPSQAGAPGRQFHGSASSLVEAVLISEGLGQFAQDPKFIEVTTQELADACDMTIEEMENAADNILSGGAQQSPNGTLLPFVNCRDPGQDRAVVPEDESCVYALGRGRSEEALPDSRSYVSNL
# T1 sequence (P54290 25-944 partner limits assumed, other chains not shown): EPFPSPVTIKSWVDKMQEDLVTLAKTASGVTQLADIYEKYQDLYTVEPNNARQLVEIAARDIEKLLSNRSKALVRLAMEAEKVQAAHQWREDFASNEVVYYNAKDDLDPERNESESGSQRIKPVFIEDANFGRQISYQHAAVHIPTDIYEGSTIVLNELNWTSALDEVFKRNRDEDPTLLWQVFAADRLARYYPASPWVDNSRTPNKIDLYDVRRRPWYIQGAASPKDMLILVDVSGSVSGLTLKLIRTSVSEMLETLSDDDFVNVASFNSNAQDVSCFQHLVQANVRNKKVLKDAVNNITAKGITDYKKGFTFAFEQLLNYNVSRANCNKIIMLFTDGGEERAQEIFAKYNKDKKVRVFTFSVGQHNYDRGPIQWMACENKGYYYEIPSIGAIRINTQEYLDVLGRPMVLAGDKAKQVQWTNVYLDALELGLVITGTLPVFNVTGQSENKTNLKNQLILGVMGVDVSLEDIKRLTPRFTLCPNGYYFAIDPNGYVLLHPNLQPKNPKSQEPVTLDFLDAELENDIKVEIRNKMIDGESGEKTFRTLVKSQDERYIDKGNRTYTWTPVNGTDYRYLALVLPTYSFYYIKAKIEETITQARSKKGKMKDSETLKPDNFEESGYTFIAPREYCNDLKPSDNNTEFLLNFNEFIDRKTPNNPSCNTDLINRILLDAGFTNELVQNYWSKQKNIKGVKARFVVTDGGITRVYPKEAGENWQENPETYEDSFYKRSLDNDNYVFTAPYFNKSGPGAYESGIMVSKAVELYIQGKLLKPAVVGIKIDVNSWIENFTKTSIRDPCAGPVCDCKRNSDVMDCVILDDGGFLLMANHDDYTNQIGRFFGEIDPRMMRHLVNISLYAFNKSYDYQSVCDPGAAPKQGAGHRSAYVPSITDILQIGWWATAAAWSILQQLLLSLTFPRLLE
# T1 sequence (P54290 945-1091 partner limits assumed, other chains not shown): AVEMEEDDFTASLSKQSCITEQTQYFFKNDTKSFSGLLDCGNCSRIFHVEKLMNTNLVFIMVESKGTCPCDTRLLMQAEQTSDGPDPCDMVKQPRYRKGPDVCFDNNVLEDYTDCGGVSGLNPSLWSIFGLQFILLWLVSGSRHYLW
# Procedure: (§1) The protocols for these experiments are given below.
# Determination of the Activity of al Antagonists at Calcium Channels
# Briefly, the tissue was minced and homogenized in 50 mM Tris-HCl (pH 7.4) containing 0.1 mM phenylmethylsulfonyl fluoride. The homogenates were centrifuged at 1000 g for 15 minutes, the resulting supernatant was centrifuged at 45,000 g for 15 minutes. The 45,000 g pellet was suspended in buffer and centrifuged a second time. Aliquots of membrane protein were incubated for 30 minutes at 37° C. in the presence of [3H]nitrendipine (1 nM), and nonspecific binding was determined in the presence of 10 μM nifedipine. The bound radioligand was separated by filtration through GF/B filters using a cell harvester.
# α2A receptor = biological target: T2, α2A receptor (Homo sapiens, UniProt P08913); assay: Competition binding, [3H]rauwolscine, human α2A receptor; conditions: [3H]rauwolscine, human receptor, LM(tk-) cell lysates; mean; read-out: PKi alpha-2 2a (converted)
# T2 construct: host or cells: LM(tk-) cells, line L-α2A
# T2 sequence (P08913 1-465): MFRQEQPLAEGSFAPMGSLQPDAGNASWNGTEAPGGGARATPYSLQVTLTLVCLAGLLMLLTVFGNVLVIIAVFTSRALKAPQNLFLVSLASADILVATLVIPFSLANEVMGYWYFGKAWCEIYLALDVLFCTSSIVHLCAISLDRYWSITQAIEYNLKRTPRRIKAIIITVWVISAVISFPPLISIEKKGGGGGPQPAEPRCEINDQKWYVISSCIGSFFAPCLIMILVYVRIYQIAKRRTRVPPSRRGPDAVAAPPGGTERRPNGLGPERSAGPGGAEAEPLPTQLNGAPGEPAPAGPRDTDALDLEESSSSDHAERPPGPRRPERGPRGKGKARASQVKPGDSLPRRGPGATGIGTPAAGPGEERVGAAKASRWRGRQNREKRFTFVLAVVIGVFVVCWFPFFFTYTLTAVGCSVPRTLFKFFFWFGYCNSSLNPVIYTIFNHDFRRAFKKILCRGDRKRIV
# Source text: as §1
# (§2) α2 Human Adrenergic Receptors:
# (§3) To determine the potency of […], antagonists at the α2 receptors, LM(tk−) cell lines stably transfected with the genes encoding the α2A, α2B, and α2C receptors were used. The cell line expressing the α2A receptor is designated L-α2A, and was deposited on Nov. […] The cell line expressing the α2B receptor is designated L-NGC-α2B, and was deposited on Oct. […] The cell line expressing the α2C receptor is designated L-α2C, and was deposited on Nov. […] Cell lysates were prepared as described above (see Radioligand Binding Assays), and suspended in 25 mM glycylglycine buffer (pH 7.6 at room temperature). Equilibrium competition binding assay were performed using [3H]rauwolscine (0.5 nM), and nonspecific binding was determined by incubation with 10 μM phentolamine. The bound radioligand was separated by filtration through GF/B filters using a cell harvester.
# α2B receptor = biological target: T3, α2B receptor (Homo sapiens, UniProt P18089); assay: Competition binding, [3H]rauwolscine, human α2B receptor; conditions: [3H]rauwolscine, human receptor, LM(tk-) cell lysates; mean; read-out: PKi alpha-2 2b (converted)
# T3 construct: host or cells: LM(tk-) cells, line L-NGC-α2B
# T3 sequence (P18089 1-450): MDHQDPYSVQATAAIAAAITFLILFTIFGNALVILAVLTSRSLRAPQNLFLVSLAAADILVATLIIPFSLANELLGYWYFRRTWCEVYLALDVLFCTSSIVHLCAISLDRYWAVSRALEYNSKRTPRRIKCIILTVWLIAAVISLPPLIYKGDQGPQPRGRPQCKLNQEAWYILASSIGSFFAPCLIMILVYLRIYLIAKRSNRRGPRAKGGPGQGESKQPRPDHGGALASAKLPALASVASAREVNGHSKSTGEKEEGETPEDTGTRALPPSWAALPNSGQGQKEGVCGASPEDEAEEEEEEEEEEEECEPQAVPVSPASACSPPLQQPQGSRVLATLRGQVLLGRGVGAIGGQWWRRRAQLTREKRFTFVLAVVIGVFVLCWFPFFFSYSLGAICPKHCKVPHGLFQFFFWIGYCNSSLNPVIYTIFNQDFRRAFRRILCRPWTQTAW
# Source text: as §1, §2, §3
# α2C receptor = biological target: T4, α2C receptor (Homo sapiens, UniProt P18825); assay: Competition binding, [3H]rauwolscine, human α2C receptor; conditions: [3H]rauwolscine, human receptor, LM(tk-) cell lysates; mean; read-out: PKi alpha-2 2c (converted)
# T4 construct: host or cells: LM(tk-) cells, line L-α2C
# T4 sequence (P18825 1-462): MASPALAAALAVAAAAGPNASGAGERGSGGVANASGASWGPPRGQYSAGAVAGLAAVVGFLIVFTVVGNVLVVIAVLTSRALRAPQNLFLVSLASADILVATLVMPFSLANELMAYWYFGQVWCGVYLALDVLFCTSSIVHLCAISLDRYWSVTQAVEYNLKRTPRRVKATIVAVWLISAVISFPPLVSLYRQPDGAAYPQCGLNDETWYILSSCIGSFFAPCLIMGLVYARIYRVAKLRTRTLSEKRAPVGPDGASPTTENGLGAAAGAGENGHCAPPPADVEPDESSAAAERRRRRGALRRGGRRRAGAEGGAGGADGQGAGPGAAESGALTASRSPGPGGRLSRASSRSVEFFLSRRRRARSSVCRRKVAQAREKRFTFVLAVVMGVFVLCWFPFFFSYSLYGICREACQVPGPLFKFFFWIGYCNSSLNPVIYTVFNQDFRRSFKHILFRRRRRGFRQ
# Source text: as §1, §2, §3
# [1] = biological target: T5, α1A Human Adrenergic Receptor (Homo sapiens, UniProt P25100); assay: Radioligand binding, [3H]prazosin, cloned human α1A adrenergic receptor; conditions: for Ki: [3H]prazosin, cloned human receptor, LM(tk-) cell membranes, mean, read-out: PKi alpha-1 1a (converted)
# T5 construct: The entire coding region of α1A (1719 bp); expressed in transfected cells
# T5 sequence (P25100 1-572): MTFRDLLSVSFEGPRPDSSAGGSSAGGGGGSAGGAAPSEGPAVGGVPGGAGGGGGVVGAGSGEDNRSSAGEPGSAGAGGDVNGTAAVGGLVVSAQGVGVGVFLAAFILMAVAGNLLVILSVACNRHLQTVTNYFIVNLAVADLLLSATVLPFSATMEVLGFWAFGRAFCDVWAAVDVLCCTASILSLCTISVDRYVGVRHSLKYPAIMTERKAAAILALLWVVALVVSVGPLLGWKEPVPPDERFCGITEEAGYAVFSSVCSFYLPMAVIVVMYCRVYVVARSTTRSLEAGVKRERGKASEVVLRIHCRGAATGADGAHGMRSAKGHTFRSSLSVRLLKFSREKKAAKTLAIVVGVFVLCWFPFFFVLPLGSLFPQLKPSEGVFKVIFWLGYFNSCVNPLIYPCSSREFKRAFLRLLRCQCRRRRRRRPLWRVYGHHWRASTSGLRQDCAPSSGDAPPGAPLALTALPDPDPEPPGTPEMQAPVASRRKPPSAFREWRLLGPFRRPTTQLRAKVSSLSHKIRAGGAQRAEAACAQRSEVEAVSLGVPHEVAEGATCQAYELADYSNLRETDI
# In short: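 In pH 7.5 Tris/MgCl2/ascorbic acid buffer, α1A-expressing LM(tk−) membranes are exposed to 0.5 nM [3H]prazosin (37° C, 20 min). Excess phentolamine (10 μM) marks nonspecific binding before rapid filtration.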
# [2] = biological target: T6, α1B Human Adrenergic Receptor (Homo sapiens, UniProt P35368); assay: Radioligand binding, [3H]prazosin, cloned human α1B adrenergic receptor; conditions: cloned human receptor, LM(tk-) cell membranes, mean, read-out: PKi alpha-1 1b (converted)
# T6 construct: The entire coding region of α1B (1563 bp); expressed in transfected cells
# T6 sequence (P35368 1-520): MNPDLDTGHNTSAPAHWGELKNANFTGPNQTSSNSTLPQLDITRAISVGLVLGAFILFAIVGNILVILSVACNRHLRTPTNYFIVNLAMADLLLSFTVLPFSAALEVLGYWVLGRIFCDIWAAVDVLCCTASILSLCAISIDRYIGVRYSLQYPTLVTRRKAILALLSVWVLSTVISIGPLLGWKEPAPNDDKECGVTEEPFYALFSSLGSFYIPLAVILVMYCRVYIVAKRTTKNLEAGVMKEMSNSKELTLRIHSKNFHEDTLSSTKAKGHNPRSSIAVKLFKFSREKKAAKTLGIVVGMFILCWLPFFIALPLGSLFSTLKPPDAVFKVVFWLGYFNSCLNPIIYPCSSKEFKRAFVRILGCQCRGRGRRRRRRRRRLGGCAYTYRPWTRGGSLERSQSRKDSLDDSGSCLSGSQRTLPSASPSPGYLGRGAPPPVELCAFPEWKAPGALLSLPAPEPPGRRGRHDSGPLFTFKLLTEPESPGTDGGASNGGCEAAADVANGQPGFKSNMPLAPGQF
# In short: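 [3H]prazosin (0.5 nM) binding was run for 20 min at 37° C in pH 7.5 Tris/MgCl2/ascorbate buffer on membranes of LM(tk−) cells stably expressing the cloned receptor. Filtration through GF/B ended the reaction; 10 μM phentolamine gave nonspecific binding.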
# [3] = biological target: T7, α1C Human Adrenergic Receptor (Homo sapiens, UniProt P35348); assay: Radioligand binding, [3H]prazosin, cloned human α1C adrenergic receptor; conditions: cloned human receptor, LM(tk-) cell membranes, mean, read-out: PKi alpha-1 1c (converted)
# T7 construct: The entire coding region of α1C (1401 bp); expressed in transfected cells
# T7 sequence (P35348 1-466): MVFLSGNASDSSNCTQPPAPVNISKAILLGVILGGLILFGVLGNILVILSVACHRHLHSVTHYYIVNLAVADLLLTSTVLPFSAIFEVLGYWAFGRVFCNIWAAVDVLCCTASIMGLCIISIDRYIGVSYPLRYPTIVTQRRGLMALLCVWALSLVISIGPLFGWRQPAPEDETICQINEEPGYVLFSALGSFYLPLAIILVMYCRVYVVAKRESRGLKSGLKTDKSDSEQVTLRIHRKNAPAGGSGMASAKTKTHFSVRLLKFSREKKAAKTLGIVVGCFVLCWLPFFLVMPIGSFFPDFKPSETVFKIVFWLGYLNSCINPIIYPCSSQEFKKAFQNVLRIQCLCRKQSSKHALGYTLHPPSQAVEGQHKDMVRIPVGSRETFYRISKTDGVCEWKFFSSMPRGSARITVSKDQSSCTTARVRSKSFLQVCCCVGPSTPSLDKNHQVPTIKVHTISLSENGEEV
# In short: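 LM(tk−) membranes (stable human α1C); [3H]prazosin 0.5 nM; 37° C., 20 min; Tris-HCl 50 mM/MgCl2 1 mM/ascorbate 0.1%, pH 7.5; NSB 10 μM phentolamine; GF/B filtration.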
SMILES,Ki (α2A receptor),Ki (α2B receptor),Ki (α2C receptor),melting point,Ki [1],Ki [2],Ki [3],other results
"CCC1=C(C(N)=O)C(c2ccc([N+](=O)[O-])cc2)C(C(=O)NCCCN2CCC(c3ccccc3)(c3ccccc3)CC2)=C(COCCN)N1 (racemic) [(±)-144, 2-((2-Aminoethyl)oxy)methyl-5-carboxamido-6-ethyl-1,4-dihydro-4-(4-nitro)phenyl-3-(N-(3-(4,4-diphenylpiperidin-1-yl)propyl))carboxamidopyridine]",,,,,,,,"Ki (L-type calcium channel; rat cardiac muscle membrane fragments, L-type calcium channel, read-out: pKi Ca (converted)): 12.6 µM"
"COC(=O)C1(c2ccccc2)CCN(CCCNC(=O)C2=C(C)NC(C)=C(C(=O)O)C2c2ccc([N+](=O)[O-])cc2)CC1 (centres unmarked) [Example 204, 1,4-Dihydro-2,6-dimethyl-3-{N-[3-(4-methoxycarbonyl-4-phenylpiperidin-1-yl)propyl]}carboxamido-4-(4-nitrophenyl)pyridine-5-carboxylic acid]",1170 nM,1700 nM,1230 nM,139 to 141 °C,,,,
"COC(=O)C1(c2ccccc2)CCN(CCCNC(=O)C2=C(C)NC(C)=C(C(=O)OCCO)C2c2ccc([N+](=O)[O-])cc2)CC1 (centres unmarked) [Example 207, 1,4-Dihydro-2,6-dimethyl-5-(2-hydroxyethoxycarbonyl)-3-{N-[3-(4-methoxycarbonyl-4-phenylpiperidin-1-yl)propyl]}carboxamido-4-(4-nitrophenyl)pyridine]",724 nM,955 nM,1780 nM,90 to 91 °C,1860 nM,,,
CCOC(=O)C1=C(C)NC(C)=C(C(=O)NCCCN2CCC(C(=O)OC)(c3ccccc3)CC2)C1c1ccc([N+](=O)[O-])cc1 (centres unmarked) [Example 208],2690 nM,1260 nM,977 nM,73 to 75 °C,741 nM,,,
"CC1=C(C(N)=O)C(c2ccc([N+](=O)[O-])cc2)C(C(=O)NCCCN2CCC(c3ccccc3)CC2)=C(COCCN=[N+]=[N-])N1 (centres unmarked) [Example 216, 2-((Azidoethyl)oxy)methyl-5-carboxamido-1,4-dihydro-6-methyl-4-(4-nitro)phenyl-3-(N-(3-(4-phenylpiperidin-1-yl)propyl))carboxamidopyridine]",,,,,60.3 nM,7.08 nM,1.7 nM,"Ki (L-type calcium channel; rat cardiac muscle membranes, mean, read-out: PKi Ca (converted)): 1 µM"
"CC1=C(C(N)=O)C(c2ccc([N+](=O)[O-])cc2)C(C(=O)NCCCN2CCC(c3ccccc3)(c3ccccc3)CC2)=C(COCCN)N1 (centres unmarked) [Example 217, 2-((2-Aminoethyl)oxy)methyl-5-carboxamido-1,4-dihydro-6-methyl-3-(N-(3-(4,4-diphenylpiperidin-1-yl)propyl))carboxamido-4-(4-nitro)phenylpyridine]",,,,,,447 nM,2.45 nM,pKi (L-type calcium channel; PKi Ca): 5.09; pKi ([1]; PKi alpha-1 1a): 6.11
